In PubChem BioAssay AID179 (DTP/NCI, 2004) one finds EC50, IC50 and outcome data, which are given here for 71 molecules.

Active and inactive are the calls of the source.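 Rule for the calls: active = compounds giving half or more protection of infected cells from virus-caused growth loss, again on retest; inactive = the rest.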 Where a SMILES comes first, the peptide text is derived from it.

The test concerns CEM cells HIV-1 protection, formazan growth assay. Briefly: NCI AIDS Antiviral Assay. To be noted: for IC50: measured here: growth of uninfected CEM cells. In a few lines:
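Soluble formazan readout of cell growth; CEM cells ± HIV-1; 5 drug concs. ≥50% protection → retest; ≥50% again = moderately active; reproducible 100% = confirmed active.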

Regarding `Cc1cc(C#N)c[n+](C)c1`, the EC50 was over 200 µM and the 50% inhibitory concentration (IC50) is over 200 µM.
Regarding `CCN(CC)CC1CCCCN1CC(=O)N1c2cc(Cl)ccc2NC(=O)CC1C` (centres undefined), the EC50 is 97.7 µM and the 50% inhibitory concentration (IC50) is over 200 µM.
As for `CC(C)CC1NC(=O)CCC(NC(=O)C(Cc2ccc(O)cc2)NC(=O)OCc2ccccc2)C(=O)NC(Cc2ccccc2)C(=O)NC(Cc2ccccc2)NC1=O` (centres undefined), the EC50 is over 200 µM and the IC50 is over 200 µM.
Regarding `O=C(/C=C/c1ccc([N+](=O)[O-])o1)N1CCN(Cc2ccccc2)CC1`, the EC50 is over 95.5 µM and the half-maximal inhibitory concentration (IC50) stood at 11.2 µM.
For the molecule `CC1C(c2ccccc2)SC(=N)N1C` (centres undefined), the EC50 was over 417 µM and the IC50 was determined as 257 µM.
Consider `O=c1[nH]c(=O)n(C2OC(CO)C(O)C2O)cc1F` (centres undefined), for which the EC50 was over 20 µM and the IC50 came to 0.00631 µM.
For the molecule `CC(C)(C)[Si](C)(C)OCC1OC(n2cnc3c(=O)[nH]c(NC(=O)c4ccccc4)nc32)C(O[Si](C)(C)C(C)(C)C)C1O[Si](C)(C)C(C)(C)C` (centres undefined), the EC50 is over 200 µM and the IC50 came to 9.12 µM.
The like results for `Cc1cccc(C(C)(C)C)c1NC(=O)C(=O)C(C(=O)/C=C\c1ccccc1)C1OC(=O)c2ccccc21` (centres undefined) were, in that order, over 214 µM and 58.9 µM.
The like results for `CC1(C)Oc2ccc(NC(=O)CCC(N)C(=O)O)cc2O1` (centres undefined) were, in that order, 186 µM and over 200 µM.
The like results for `O=C(CCCN1CCC2(CC1)NC(=O)c1ccccc1O2)c1ccc(F)cc1` were, in that order, over 200 µM and over 200 µM.
On to `CCOC(=O)C1(C)CCC(C(=O)OC)C1=O` (centres undefined), for which the EC50 was over 794 µM and the IC50 was determined as 52.5 µM.
The like results for `C/C(=N\NC(=S)N1CCN(c2ccccn2)CC1)c1cccc2cccnc12` were, in that order, over 45.7 µM and 0.0417 µM.
The matching figures for `COC(=O)[C@H]1COC(=S)N1C(=O)[C@@H](C)[C@H](O)C(C)C`: over 631 µM and over 631 µM.
Regarding `N#CC(NC12CC3CC(CC(C3)C1)C2)c1ccccc1` (centres undefined), the result was inactive.
Turning to `O=c1cc(-c2ccccc2)ss1`, the EC50 is over 200 µM and the IC50 came to 105 µM.
On to `C[CH2][Sn]([CH2]C)([S]CCS(=O)(=O)O)[S]CCS(=O)(=O)O` (tested in a mixture with another compound), for which the EC50 was over 200 µM and the half-inhibitory concentration (IC50) came out at 3.16 µM.
As to `CN(C)Cc1cc(C(=O)/C=C/c2ccc(F)cc2)cc(CN(C)C)c1O`, the EC50 is over 200 µM and the half-maximal inhibitory concentration (IC50) came out at 19.1 µM.
Regarding `Cc1cn(C2CC(O)C(COC(=O)CCCCCCCCCCCBr)O2)c(=O)[nH]c1=O` (centres undefined), the concentration for a half-maximal effect (EC50) was 29.5 µM and the IC50 amounted to 51.3 µM.
For `O=C(O)/C=N\Nc1nc2ccccc2[nH]1`, the EC50 was over 200 µM and the concentration for half-maximal inhibition (IC50) is over 200 µM.
Take `CCO[C@H]1OC(=O)[C@@H]2C(c3ccc([N+](=O)[O-])cc3)=NO[C@H]12`: the EC50 was over 46.8 µM and the IC50 is over 46.8 µM.
As for `COc1ccc(Cl)cc1NC(=O)O/N=C(\Cl)C(C)C`, the EC50 was over 20 µM and the IC50 was determined as 2.51 µM.
As to `CCCCCCCCCCCCCC(=O)CBr`, the outcome was inactive.
For `O=C(NN1CCOC1=O)OCCCl`, the EC50 is over 200 µM and the IC50 is over 200 µM.
Regarding `C=C1C(C(=O)O)C1C(=O)O` (centres undefined), the outcome was inactive.
For `CCC1(O)C(=O)OCc2c1cc1n(c2=O)Cc2cc3ccc(CO)cc3nc2-1` (centres undefined), the EC50 was over 10 µM and the concentration for half-maximal inhibition (IC50) was found to be 1.51 µM.
The like results for `CS(=O)(=O)N(CCC#N)c1ccc(/C=C2\N=C(c3ccccc3Cl)OC2=O)cc1` were, in that order, over 219 µM and over 219 µM.
With `CN1C2(c3ccccc3)C(C(=O)c3ccccc3)=C(C(=O)c3ccccc3)C1(c1ccccc1)c1c(-c3ccccc3)sc(-c3ccccc3)c12`, the outcome was inactive.
As for `CCCCN=c1ssc(=O)n1CCCC`, the EC50 is over 200 µM and the IC50 turned out to be 26.3 µM.
As to `COC(C)(C)C1=CCC(C)CC1` (centres undefined), the EC50 is over 100 µM and the half-maximal inhibitory concentration (IC50) was over 100 µM.
In the case of `COc1ccc(N=NC(=O)NC(CC(C)C)C(=O)NCC(=O)O)cc1` (centres undefined), the EC50 is over 200 µM and the half-maximal inhibitory concentration (IC50) stood at 3.72 µM.
The like results for `CCOC(=O)[C@@H]1ON2OC(OC3CCCC3(c3ccccc3)c3ccccc3)C(OC(C)=O)[C@H]3OC(=O)[C@@H]1C32` (some centres undefined) were, in that order, over 200 µM and over 200 µM.
The like results for `COc1ccc(-n2nc(C)cc(Cl)c2=O)cc1` were, in that order, over 145 µM and over 145 µM.
The matching figures for `N#Cc1cc([N+](=O)[O-])ccc1NC(=O)C(=O)C(C(=O)c1ccc2ccccc2c1)C1OCc2ccccc21` (centres undefined): over 70.8 µM and 37.2 µM.
Regarding `Cc1ccccc1C(C#N)/C(=N/NC(=O)C(=O)NN)C(=O)Nc1cccc(C(F)(F)F)c1` (centres undefined), the EC50 was over 209 µM and the IC50 is over 209 µM.
Take `COc1ccc(C[C@H](N)C(=O)N2C[C@@H](CO)C[C@@H](n3cnc4c(N(C)C)ncnc43)C2)cc1`: the EC50 was over 275 µM and the IC50 was over 275 µM.
For the molecule `O=C(/C(=C/c1ccccc1)c1ccccc1)N1c2ccccc2CC1c1c[nH]c2ccccc12` (centres undefined), the EC50 is 0.38 µM and the half-maximal inhibitory concentration (IC50) amounted to 8.51 µM.
`C(=Nc1ccc(-c2cc(-c3ccccc3)nc3ccc4ccccc4c23)cc1)c1ccccc1`: the EC50 was over 200 µM and the IC50 was determined as 31.6 µM.
The matching figures for `CCC[CH2][Sn]([CH2]CCC)([O]C(=O)/C=C/c1ccccc1F)[O]C(=O)/C=C/c1ccccc1F`: over 9.33 µM and over 9.33 µM.
As for `C[C@H]1O[C@@H](c2c(O)ccc3ccccc23)C[C@@H](N(C)C)C1O` (some centres undefined), the EC50 was over 200 µM and the half-maximal inhibitory concentration (IC50) stood at 97.7 µM.
`C[N+](C)(C)C1CC([N+](C)(C)C)C2c3ccccc3C21` (centres undefined): the outcome was inactive.
`O=C1c2c(ccc3c2CCCC3)CC12Cc1ccccc1C2`: the EC50 was over 200 µM and the IC50 amounted to 22.4 µM.
Regarding `CN(NC(=O)/C(=C/c1c(O)ccc2ccccc12)NC(=O)c1ccccc1)c1cn[nH]c(=O)c1Cl`, the EC50 is over 200 µM and the half-maximal inhibitory concentration (IC50) is over 200 µM.
On to `Cc1c(COC(=O)NC(C)C)c(COC(=O)NC(C)C)c2n1CS(=O)C2` (centres undefined), for which the EC50 was over 200 µM and the half-inhibitory concentration (IC50) was 166 µM.
For the molecule `O=NN(CCCl)C(=O)NCCCl`, the EC50 was over 1150 µM and the IC50 was over 1150 µM.
As to `NC(=S)Nc1ccc2c(c1)oc1ccccc12`, the EC50 was over 200 µM and the half-inhibitory concentration (IC50) was over 200 µM.
As for `Cc1cc(Cl)ccc1NC(=O)/C(Cl)=C(/Cl)C(=O)O`, the result was inactive.
On to `CCC(C)C(NC(=O)C(CCC(N)=O)NC(=O)C(CCCCN)NC(=O)C(CO)NC(=O)C(CC(C)C)NC(=O)C(Cc1ccc(O)cc1)NC(=O)C(C)N)C(=O)NC(C)C(=O)NC(CO)C(=O)NC(CC(N)=O)C(=O)O` (centres undefined) (H-AYLSKQIASN-OH; configuration not given here), for which the EC50 was over 57.5 µM and the IC50 is over 57.5 µM.
Regarding `O=[N+]([O-])c1cccc(C2=NOC3CCCC23)c1` (centres undefined), the outcome was inactive.
The same measure, in the same setting: then `COc1cc(O)c2c(c1C)C(C)(O)c1c(C)coc1C2=O` (centres undefined), with “inactive”.
For `C[C@@H]1C(=O)c2c(O)cc(O)cc2O[C@@H]1C`, the EC50 was over 200 µM and the IC50 was over 200 µM.
In the case of `O=C1NC(=O)C2C1N(Cc1ccccc1)C(=O)N2Cc1ccccc1` (centres undefined), the EC50 was over 107 µM and the IC50 is over 107 µM.
In the case of `COCC12CCC(OC)C34C5CC6(O)C(OC)CC(OC(C)=O)(C5C6OC(=O)c5ccccc5)C(C(OC)C13)C4N(C)C2` (centres undefined), the outcome was inactive.
Turning to `O=c1nc2sc3ccccc3c(=O)n2[nH]1`, the EC50 is over 204 µM and the IC50 was found to be 77.6 µM.
On to `CCC(C=O)P1(=O)OC(C)(C)CN1C(C)(C)C` (centres undefined), for which the EC50 is over 200 µM and the IC50 was determined as 64.6 µM.
For the molecule `O=C1C(c2ccccc2)=[N+]([O-])c2ccc(Cl)cc21`, the result was inactive.
For the molecule `CCC1COS(=O)(=O)CS(=O)(=O)O1` (centres undefined), the EC50 was over 1070 µM and the 50% inhibitory concentration (IC50) stood at 1020 µM.
In the case of `C[Si](C)(OCCS(=O)(=O)O)C1S(=O)(=O)OCCOS1(=O)=O`, the EC50 is over 200 µM and the half-inhibitory concentration (IC50) was determined as 60.3 µM.
For the molecule `Nc1ncc(Sc2ccccc2C(=O)O)s1`, the EC50 is over 200 µM and the 50% inhibitory concentration (IC50) was over 200 µM.
In the case of `Cc1ccc(-n2nc(C(OC3OC(CO)C(O)C(O)C3O)C(O)CO)c3nc4cc(C)c(C)cc4nc32)cc1` (centres undefined), the outcome was inactive.
On to `O=[N+]([O-])c1cccnc1NCC1(CO)CCCC1`, for which the EC50 is over 200 µM and the 50% inhibitory concentration (IC50) worked out at 46.8 µM.
The matching figures for `C/C(CCc1ccccc1)=N\Nc1ccc([N+](=O)[O-])cc1[N+](=O)[O-]`: over 21.9 µM and over 21.9 µM.
The like results for `O=C(/C=C/c1ccc(O)c(O)c1)OCCc1ccc2ccccc2c1` were, in that order, over 200 µM and 4.68 µM.
In the case of `CC12CCC(C=C1N1CCCCC1)C(C)(C)O2` (centres undefined), the EC50 is over 1070 µM and the 50% inhibitory concentration (IC50) was over 1070 µM.
In the case of `COC1Cc2ccccc2C1O` (centres undefined), the result was inactive.
Take `CC(C)(N)C(=O)N[C@@H]1C(=O)N2[C@@H]1SC(C)(C)[C@@H]2C(=O)O`: the EC50 was over 200 µM and the IC50 was over 200 µM.
Consider `O=C(N/C(=C\c1ccc([N+](=O)[O-])cc1)c1nc2ccc(Cl)cc2[nH]1)c1ccccc1`, for which the outcome was inactive.
On to `CC(=O)OC1CCC(OC(C)=O)[C@H]2[C@@H]1[C@@H]1S[C@H]2c2ccccc21` (some centres undefined), for which the EC50 is over 200 µM and the half-inhibitory concentration (IC50) came to 42.7 µM.
The matching figures for `CC1(C)OCC([C@H]2CC23SCCCS3)O1` (some centres undefined): over 200 µM and over 200 µM.
For `O=C1NC(=O)C(=Cc2ccc3c(c2)OCO3)C(=O)N1`, the EC50 is over 14.5 µM and the half-inhibitory concentration (IC50) is over 14.5 µM.
For `C[C@]1(O)CC(=O)c2c(c(-c3ccc4cc5c(c(O)c4c3O)C(=O)C[C@@](C)(O)C5)c3cccc(O)c3c2O)C1`, the EC50 is over 200 µM and the IC50 came out at 1.32 µM.
As for `O=C([CH-]C(=O)c1ccccc1)c1ccccc1.O=C([CH-]C(=O)c1ccccc1)c1ccccc1.[CH2-]CCC.[CH2-]CCC.[Sn+4]`, the EC50 is over 7.76 µM and the concentration for half-maximal inhibition (IC50) amounted to 0.427 µM.

For orientation: EC50 means the concentration giving half of the maximal effect. For orientation: IC50 means the concentration needed to halve the response being measured. A low value points to greater potency.
